Molecules are shown by their SMILES. Where a SMILES comes first, the peptide text is derived from it.

Experiment [1] has as its system peptide-forming enzyme (Mono S fraction enzyme). Nature of the experiment: Production of L-alanyl-L-glutamine from L-alanine methyl ester and L-glutamine with enzyme fraction. It counts as biochemical, Empedobacter brevis. Conditions: for L-Ala-L-Gln: L-alanine methyl ester hydrochloride 100 mM, 18° C., 2 hours. Here is the method: On the other hand, there was hardly any production of L-Ala-L-Gln observed in an enzyme-non-added lot, and the […] was only about 0.07 mM after reacting for 120 minutes.

The subject of experiment [2] is microbial cells of Sphingobacterium sp. strain FERM BP-8124. Nature of the experiment: Production of L-alanyl-L-glutamine using microbial cells of Sphingobacterium sp. It is filed as cell-based. Conditions: 0.1 mL cell suspension (100 g/L) + 0.1 mL buffer with 200 mM L-alanine methyl ester hydrochloride, 400 mM L-glutamine; pH 9.0, 25° C., 120 minutes. Here is the method: A 50 ml medium (pH 7.0) containing 5 g of glucose, 5 g of ammonium sulfate, 1 g of monopotassium phosphate, 3 g of dipotassium phosphate, 0.5 g of magnesium sulfate, 10 g of yeast extract, and 10 g of peptone in 1 L was transferred to a 500 mL Sakaguchi flask and sterilized at 11 5° C. for 15 minutes for culturing Sphingobacterium sp. strain FERM BP-8124 (Depositary institution: the independent administrative corporation, National Institute of Advanced Industrial Science and Technology, International Patent Organism Depositary, Address of depositary institution: Chuo Dai-6, 1-1 Higashi 1-Chome, Tsukuba-shi, Ibaraki-ken, Japan, International deposit date: Jul. 22, 2002). This medium was then inoculated with one loopful cells of Sphingobacterium sp. strain FERM BP-8124 (Depositary institution: the independent administrative corporation, National Institute of Advanced Industrial Science and Technology, International Patent Organism Depositary, Address of depositary institution: Chuo Dai-6, 1-1 Higashi 1-Chome, Tsukuba-shi, Ibaraki-ken, Japan, International deposit date: Jul. 22, 2002) cultured at 30° C. for 24 hours in a slant agar medium (agar: 20 g/L, pH 7.0) containing 5 g of glucose, 10 g of yeast extract, 10 g of peptone and 5 g of NaCl in 1 L, followed by shake culturing at 30° C. for 20 hours and 120 strokes/minute. […]

In experiment [3] the test system is enzyme derived from Sphingobacterium sp. strain FERM BP-8124 (SP-Sepharose HP fraction enzyme). Nature of the experiment: Enzyme substrate specificity (11), (12): peptide production. It counts as biochemical. Conditions: amides and methylamine; carboxy component 100 mM, amine component 150 mM, 0.33 units enzyme, pH 9.0, 25° C., 1.5 hours. The method in brief:
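Peptide and oligopeptide formation catalysed by SP-Sepharose HP-fraction enzyme from Sphingobacterium sp. FERM BP-8124; carboxy components used as hydrochloride salts, 0.1% Tween-80 final added with L-Tyr-OMe. Products quantified; "+" denotes detected but unquantified (no standard), "tr" trace.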

Regarding `C[C@H](N)C(=O)N[C@@H](CCC(N)=O)C(=O)O` [L-Ala-L-Gln, L-alanyl-L-glutamine] (H-Ala-Gln-OH), the “Peptide formed, enzyme-added lot” value in experiment [1] (100 mM L-alanine methyl ester hydrochloride, 200 mM L-glutamine, 10 mM EDTA, pH 9.0, 18° C., FIG. 3) is given as 83 mM. The L-Ala-L-Gln in experiment [1] (L-glutamine 100 mM) was 68.2 mM; in experiment [1] (L-glutamine 110 mM), 72.1 mM; in experiment [1] (L-glutamine 120 mM) it was 73.3 mM; in experiment [1] (L-glutamine 130 mM), 75.1 mM; in experiment [1] (L-glutamine 150 mM), 75.5 mM; in experiment [1] (L-glutamine 200 mM), 82.0 mM. In addition, the L-alanyl-L-glutamine formed in experiment [2] stood at 62 mM. In experiment [3], the “Produced peptide (Table 15-4)” value worked out at 0.3 mM.
